Data taken from patent US20040019066A1, “Methionine salvage pathway in bacillus” (priority 2002, published 2004).

Tests used:
[1] = system: Strain BSHP7014 (mtnW:lacZ amyE::pxyl mtnXYZ); assay: Toxicity of MTR for BSHP7014 strain (paper disc on ED1 minimal medium plates); format: cell-based, Bacillus subtilis
Procedure: Toxicity of MTR for BSHP7014 strain. Strain BSHP7014 (mtnW:lacZ amyE::pxyl mtnXYZ) was grown on ED1 minimal medium plates in the presence of sulfate as sulfur source (panel A) or in the absence of any added sulfur source (agar as sole sulfur source, panel B). Xylose was added to the medium in order to trigger the expression of mtnXYZ from the pxyl promoter, 10 μl of methionine (met) or MTR was adsorbed on paper discs and plates were incubated over-night at 37° C. Methionine was used as a control for growth and/or toxicity of the sulfur source.
Two genes in the pathway are dispensable, mtnV and mtnX. The first one encodes a transaminase of which there are nine putative paralogs in the genome of B. subtilis (YwfG, AlaT, AspB, PatA, YhdR, YdfD, PatB, YisV, and HisC). In the same way, MtnX (YkrX) is a member of the phosphatase family pfam00702 ([12], FIG. 6), and therefore of a ubiquitous class of hydrolases (several phosphatase genes, in particular are present in the genome of B. subtilis). This is likely to account for the lack of phenotype under our growth conditions. […] In contrast, we discovered that MTR is toxic when the distal genes are present (when used as sole sulfur source or in the presence of sulfate, see FIG. 7). Because of the weak phenotype of a mtnZ mutant and the absence of phenotype of a mtnX mutant, we can be confident that MtnY acts before MtnW (this is a common feature in operons, where it is generally observed that the more distal genes code for proteins acting in the more proximate steps of the pathway).
Bacterial strains and plasmids, and growth media: E. coli and B. subtilis strains as well as plasmids used in this work are listed in Table 3. E. coli TG1 and XL1-Blue were used for cloning experiments (TG1 for single cross-over recombination and XL1-Blue for double cross-over recombination). Despite the fact that there are no public regulations yet in this domain in China, all experiments were performed in accordance with the European regulation requirements concerning the contained use of Genetically Modified Organisms of Group-I (French agreement N^o 2735). […] In the latter case, 10 [μl of the sulfur source under investigation was applicated onto paper discs (MTR, 200 mM stock solution and methionine, 100 mM stock solution) deposited at the center of the plate, after bacteria had been uniformly spread at the surface of the plate, and growth was measured around the disK. […] The optical density (OD) of bacterial cultures was measured at 600 nm. […]

[2] = system: B. subtilis 168 and mtn region mutants; assay: Growth on MTR as sole sulfur source (ED1 minimal medium plates); format: cell-based, Bacillus subtilis; conditions: mtnX mutant, strain BFS1852, in the absence of IPTG
[3] = system: B. subtilis 168 and mtn region mutants; conditions: Bacillus subtilis; reference [5]; cited from earlier work

## CSC[C@@H](O)[C@@H](O)[C@@H](O)C=O [MTR, methylthioribose]
[1]; mtnU mutant, mtnY functional
  Toxicity of MTR to the cell: toxic
[1]; mtnW inactivated with a polar effect on the distal genes
  Influence of MTR on sulfate supplemented plates: lack of influence
[1]; mtnW mutant with distal genes mtnXYZ present, MTR as sole sulfur source or in the presence of sulfate
  Toxicity of MTR to the cell: extremely toxic
[2]
  Growth on MTR as sole sulfur source: failed to grow
[3]
  MTR as sulfur source: excellent sulfur source
